Values quoted from earlier work in patent publication US20060148833A1, “Use of chymase inhibitors for the prevention and/or treatment of arterio-venous graft failure” (priority 2002, published 2006).

Legend:
[1] = test system: dog carotid artery; conditions: dog carotid artery balloon injury model
[2] = test system: vein graft; conditions: dog model of vein graft injury
[3] = test system: balloon-injured dog coronary arteries; conditions: by suppression of vascular chymase levels
[4] = test system: restenosis following PTCA; conditions: oral administration over three months, clinical trials

Row | Structure (SMILES) | intimal hyperplasia [1] | vascular proliferation and subsequent neointima formation [2] | neointima formation [3] | rate of restenosis following PTCA [4]
1 | O=CNc1cnc(-c2ccccc2)n(CC(=O)NC(Cc2ccccc2)C(=O)C(=O)CCCOc2ccccn2)c1=O (stereo not shown) [NK3201, 2-(5-formylamino-6-oxo-3-phenyl-1,6,-dihydropyrmidine-1-yl)-N-{2,3-dioxo-6-(2-pyridyloxy)-1-phenylmethyl}hexyl acetamide] | inhibit intimal hyperplasia | inhibit vascular proliferation and subsequent neointima formation | – | –
2 | COc1ccc(C=CC(=O)Nc2ccccc2C(=O)O)cc1OC [Tranilast, N-(3,4-dimethoxycinnamoyl) anthranilic acid] | – | – | suppresses neointima formation | markedly reduce the rate of restenosis
